US20240398771A1, “TREATMENT OF SCLERODERMA AND RAYNAUD'S SYNDROME” (Aisa Pharma, Inc., priority 2023, published 2024)

Key:
[1] = system: participants with SSc-RP; experiment: Average duration of weekly RP attacks, all attacks (minutes); assay type: in vivo, human; conditions: ITT Population - Part A (Table B-5)
From the text: (§1) The relevant metrics measured by this tool daily are: • Study medication • SSc-RP symptoms (Reporting an attack including duration of attack) • Severity of the attack considering all symptoms of the attack e.g. tingling, numbness, pain, color changes (VAS 0-10 cm scale) • Participant's location at the time of the attack (inside home/outside home) • Selecting symptoms experienced during the attack (tingling, numbness, pain, color changes, other) • Pain rating during the attack (11-point Likert scale) • The RCS based on how much difficulty participants had with Raynaud's today, how many attacks the participant had, and how long they lasted. Participants will also be asked to consider how much pain, numbness, or other symptoms the Raynaud's caused in fingers (including painful sores), and how much the Raynaud's alone affected the use of hands today (VAS 0-10 cm scale).
The absolute change in average duration of weekly RP attacks from baseline to the end of each dosing period was and will be a secondary outcome variable. The sponsor-developed participant-informed diary was and will be used to record data. Average duration of weekly RP attacks is defined as the total duration of RP attacks divided by total number of RP attacks within the last 7 days of each dosing period. Total duration of RP attacks during the last 7 days of screening period divided by the total number of RP attacks will be used as baseline for the analysis of all periods. The variable will be calculated similar to frequency data as before.

[2] = system: participants with SSc-RP; experiment: Average daily Raynaud's Condition Score (RCS); assay type: in vivo, human; design: key to Average Daily RCS: Baseline, Mean / Average Daily RCS: Baseline, Median: daily RCS on VAS 0-10 cm scale; conditions: excluding outliers, ITT Part A
From the text: as §1
The RCS is based on how much difficulty participants had with Raynaud's today, how many attacks the participant had, and how long they lasted. In addition participants were and will be asked to consider how much pain, numbness, or other symptoms the Raynaud's caused in fingers (including painful sores), and how much the Raynaud's along affected the use of hand today (VAS 0-10 cm scale).
The absolute change in average daily RCS from baseline to the end of each dosing period was and will be a secondary outcome variable. The sponsor-developed participant-informed diary has been and will be used to record data. The average daily RCS is defined as the total RCS divided by the number of days with available diary data of each dosing period. Total RCS during screening period divided by the number of days with available data will be used as baseline for the analysis of all periods. If there are multiple daily RCS scores, the latest daily RCS will be used. The variable will be calculated similar to frequency data as before.

[3] = last 7 days of dosing period, listed as Cilnidipine 20 mg
[4] = last 7 days of dosing period, listed as Pooled Cilnidipine
[5] = last 7 days of screening period, listed as Cilnidipine 10 mg
[6] = last 7 days of screening period, listed as Cilnidipine 20 mg
[7] = last 7 days of screening period, listed as Pooled Cilnidipine
[8] = Pooled Cilnidipine 20 mg and Cilnidipine 20 mg + Tadalafil 5 mg

With `COCCOC(=O)C1=C(C)NC(C)=C(C(=O)OC/C=C/c2ccccc2)C1c1cccc([N+](=O)[O-])c1` (centres unmarked) [Cilnidipine, 1,4-dihydro-2,6-dimethyl,4-(3-nitrophenyl)-3,5-pyridinedicarboxylic acid 2-methoxyethyl (2 E)-3-phenyl-2-propenyl ester] the “Average Duration of weekly RP attacks (All Attacks)” value [1, 3] was 3.0 min, the “Average Duration of weekly RP attacks (All Attacks), Max” value [1, 3] was 30.5 min and the “Average Duration of weekly RP attacks (All Attacks), Q1” value [1, 3] was 3.00 min. The “Average duration of weekly RP attacks (All Attacks), Change from Baseline” value [1, 3] was -7.6 min, the “Average duration of weekly RP attacks (All Attacks), Change from Baseline, Max” value [1, 3] was 5.5 min and the “Average duration of weekly RP attacks (All Attacks), Change from Baseline, Q3” value [1, 3] was 5.45 min. For the same compound, the “Average duration of weekly RP attacks (All Attacks), Percent Change from Baseline, Max” value [1, 3] was 21.8%, the “Average duration of weekly RP attacks (All Attacks), Percent Change from Baseline, Min” value [1, 3] was −71.8% and the “Average duration of weekly RP attacks (All Attacks), Percent Change from Baseline, Q1” value [1, 3] was −71.76%. The “Average duration of weekly RP attacks (All Attacks), Percent Change from Baseline, Q3” value [1, 3] was 21.82%, the “Average Duration of weekly RP attacks (All Attacks)” value [1, 4] was 3.0 min and the “Average Duration of weekly RP attacks (All Attacks), Max” value [1, 4] was 31.5 min. The “Average Duration of weekly RP attacks (All Attacks), Q1” value [1, 4] was 3.00 min, the “Average duration of weekly RP attacks (All Attacks), Change from Baseline” value [1, 4] was -8.5 min and the “Average duration of weekly RP attacks (All Attacks), Change from Baseline, Max” value [1, 4] was 5.5 min. For the same compound, the “Average duration of weekly RP attacks (All Attacks), Change from Baseline, Median” value [1, 4] was -7.63 min, the “Average duration of weekly RP attacks (All Attacks), Change from Baseline, Q1” value [1, 4] was -8.48 min and the “Average duration of weekly RP attacks (All Attacks), Change from Baseline, Q3” value [1, 4] was 5.45 min. For the same compound, the “Average duration of weekly RP attacks (All Attacks), Percent Change from Baseline, Max” value [1, 4] was 21.8%, the “Average duration of weekly RP attacks (All Attacks), Percent Change from Baseline, Min” value [1, 4] was −71.8% and the “Average duration of weekly RP attacks (All Attacks), Percent Change from Baseline, Q1” value [1, 4] was −71.76%. The “Average duration of weekly RP attacks (All Attacks), Percent Change from Baseline, Q3” value [1, 4] was 21.82%, the “Average duration of weekly RP attacks (All Attacks), Baseline, Max” value [1, 5] was 40.0, 40.0 minutes and the “Average duration of weekly RP attacks (All Attacks), Baseline, Min” value [1, 5] was 40.0, 40.0 minutes. For the same compound, the “Average duration of weekly RP attacks (All Attacks), Baseline, Q1” value [1, 5] was 40.00, 40.00 minutes, the “Average duration of weekly RP attacks (All Attacks), Baseline, Q3” value [1, 5] was 40.00, 40.00 minutes and the “Average duration of weekly RP attacks (All Attacks), Baseline” value [1, 6] was 10.6 min. The “Average duration of weekly RP attacks (All Attacks), Baseline, Max” value [1, 6] was 25.0 min, the “Average duration of weekly RP attacks (All Attacks), Baseline, Q1” value [1, 6] was 10.63 min and the “Average duration of weekly RP attacks (All Attacks), Baseline, Q3” value [1, 6] was 25.00 min. The “Average duration of weekly RP attacks (All Attacks), Baseline” value [1, 7] was 10.6 min, the “Average duration of weekly RP attacks (All Attacks), Baseline, Max” value [1, 7] was 40.0 min and the “Average duration of weekly RP attacks (All Attacks), Baseline, Mean” value [1, 7] was 25.21 min. The “Average duration of weekly RP attacks (All Attacks), Baseline, Median” value [1, 7] was 25.00 min, the “Average duration of weekly RP attacks (All Attacks), Baseline, Q1” value [1, 7] was 10.63 min and the “Average duration of weekly RP attacks (All Attacks), Baseline, Q3” value [1, 7] was 40.00 min. The “Average Daily RCS: Baseline, Mean” value ([2]; Cilnidipine 10 mg) was 2.74, the “Average Daily RCS: Baseline, Median” value ([2]; Cilnidipine 10 mg) was 2.74 and the “Average Daily RCS (dosing period), Mean” value ([2]; Cilnidipine 20 mg) was 2.90. The “Average Daily RCS (dosing period), Median” value ([2]; Cilnidipine 20 mg) was 2.90, the “Average Daily RCS: Baseline, Median” value ([2]; Cilnidipine 20 mg) was 3.35 and the “Average Daily RCS: Baseline, Mean” value ([2]; Pooled Cilnidipine 10 mg and Cilnidipine 10 mg + Tadalafil 5 mg) was 4.07. For the same compound, the “Average Daily RCS (dosing period), Mean” value [2, 8] was 3.60, the “Average Daily RCS: Baseline, Mean” value [2, 8] was 4.68 and the “Average Daily RCS: Baseline, Median” value [2, 8] was 3.74. For the same compound, the “Average Daily RCS: Baseline, Mean” value ([2]; Pooled Cilnidipine) was 3.15 and the “Average Daily RCS: Baseline, Median” value ([2]; Pooled Cilnidipine) was 2.80.
